Values belong to the compound of their own block, whether it stands above or below them.
What was measured:
[1] = Evaluation of release of active component in vivo (chewing by volunteers, residue analysed); parameters: species or system human; details: for Caffeine released in vivo (average): average of 3 volunteers
Description: To establish the release of active component from the chewing gum, the tablets were tested by a panel of 3 volunteers. For each test, the volunteer was asked to chew one piece of gum for a set time. After that time the gum was ground, and the active component content analysed. The in vivo tests were conducted with the following chewing times: 5, 10, 15, 20, 30 and 40 minutes. The gum residue was weighed, frozen and finely ground. An exactly weighed amount of this powder was then subjected to the dissolution test according to the American Pharmacopoeia, using 1000 mL of water at 37° as dissolving fluid, and a paddle at 100 rpm. The test was performed by the spectrophotometry method, operating at 273 nm. The amount of active component released in vivo was determined by subtracting the amount of caffeine in the residue from the amount present in the pharmaceutical form.

[2] = Dissolution test according to the American Pharmacopoeia (paddle, 100 rpm, 1000 mL water, 37°); assay type: physicochemical
Description: The tablets were then subjected to the dissolution test according to the American Pharmacopoeia method, using 1000 mL of water at 37° as dissolving fluid and a paddle at 100 rpm. The test was performed by the spectrophotometry method, operating at 280 nm.

[3] = Example 3 tablet, chewing time 5 minutes
[4] = Example 3 tablet, chewing time 10 minutes
[5] = Example 3 tablet, chewing time 15 minutes
[6] = Example 3 tablet, chewing time 20 minutes
[7] = Example 3 tablet, chewing time 30 minutes
[8] = Example 3 tablet, chewing time 40 minutes
[9] = Example 5 four-layer tablets (50 mg levodopa, 12.5 mg carbidopa), time 0 min
[10] = Example 5 four-layer tablets, time 5 min
[11] = Example 5 four-layer tablets, time 15 min
[12] = Example 5 four-layer tablets, time 20 min
[13] = Example 5 four-layer tablets, time 25 min
[14] = Example 5 four-layer tablets, time 30 min
[15] = Example 5 four-layer tablets, time 35 min
[16] = Example 5 four-layer tablets, time 40 min

Compound: Cn1c(=O)c2c(ncn2C)n(C)c1=O [Caffeine]
- Caffeine released in vivo, Volunteer 2 [1, 3]: 77.02%
- Caffeine released in vivo, Volunteer 3 [1, 3]: 75.07%
- Caffeine released in vivo (average) [1, 3]: 74.54%
- Caffeine released in vivo, Volunteer 1 [1, 4]: 86.03%
- Caffeine released in vivo, Volunteer 2 [1, 4]: 83.66%
- Caffeine released in vivo, Volunteer 3 [1, 4]: 84.94%
- Caffeine released in vivo (average) [1, 4]: 84.88%
- Caffeine released in vivo, Volunteer 1 [1, 5]: 90.18%
- Caffeine released in vivo, Volunteer 2 [1, 5]: 90.97%
- Caffeine released in vivo, Volunteer 3 [1, 5]: 91.07%
- Caffeine released in vivo (average) [1, 5]: 90.74%
- Caffeine released in vivo, Volunteer 1 [1, 6]: 89.45%
- Caffeine released in vivo, Volunteer 2 [1, 6]: 91.58%
- Caffeine released in vivo, Volunteer 3 [1, 6]: 89.61%
- Caffeine released in vivo (average) [1, 6]: 90.21%
- Caffeine released in vivo, Volunteer 1 [1, 7]: 93.92%
- Caffeine released in vivo, Volunteer 2 [1, 7]: 92.25%
- Caffeine released in vivo, Volunteer 3 [1, 7]: 92.49%
- Caffeine released in vivo (average) [1, 7]: 92.89%
- Caffeine released in vivo, Volunteer 1 [1, 8]: 92.79%
- Caffeine released in vivo, Volunteer 2 [1, 8]: 93.34%
- Caffeine released in vivo, Volunteer 3 [1, 8]: 92.34%
- Caffeine released in vivo (average) [1, 8]: 92.82%
- Caffeine released in vivo, Volunteer 1 ([1]; Example 3 three-layer chewing gum tablet, 10 mg caffeine, chewing time 5 minutes): 71.52%

- percentage released by the tablets [2, 9]: 0.00%
- percentage released by the tablets [2, 10]: 63.52%
- percentage released by the tablets [2, 11]: 90.00%
- percentage released by the tablets [2, 12]: 92.47%
- percentage released by the tablets [2, 13]: 94.04%
- percentage released by the tablets [2, 14]: 94.90%
- percentage released by the tablets [2, 15]: 95.66%
- percentage released by the tablets [2, 16]: 96.28%
Compound: N[C@@H](Cc1ccc(O)c(O)c1)C(=O)O [levodopa, Levodopa]

- percentage released by the tablets [2, 9]: 0.00%
- percentage released by the tablets [2, 10]: 78.23%
- percentage released by the tablets [2, 11]: 92.63%
- percentage released by the tablets [2, 12]: 94.97%
- percentage released by the tablets [2, 13]: 96.55%
- percentage released by the tablets [2, 14]: 98.18%
- percentage released by the tablets [2, 15]: 98.77%
- percentage released by the tablets [2, 16]: 100.00%
Compound: C[C@@](Cc1ccc(O)c(O)c1)(NN)C(=O)O [carbidopa, Carbidopa]

— patent US9216157B2, “Chewing gum in the form of multi-layer tablets” (Jagotec AG, priority 2003, dated 2015)
